{"source": "patent US20220047702A1", "about": "“TARGETED MAGNETIC VEHICLES AND METHOD OF USING THE SAME” (HADASIT MEDICAL RESEARCH SERVICES AND DEVELOPMENT LTD., priority 2019, published 2022)", "key": {"[1]": {"assay": "Bound avastin concentration on IO/HSA NPs (ELISA)", "assay_type": "physicochemical", "details": "via ELISA method", "description": "200 μl of NHS-PEG-MA [MA=melimide] (MW=3000 g/mol) were added to sterile IO/HSA nanoparticles dispersion in PBS (5 ml, 10 mg/mL). The reaction mixture was shaken at room temperature for 30 min. The derivatized PEGMA-conjugated IO/HSA NPs PBS dispersion was washed and eluted with bicarbonate buffer in a magnetic column, followed by immediate addition under sterile conditions of 40 μl of AV aqueous solution (25 mg/ml). The reaction mixture was shaken at 4° C. for 1.5 h. then, 10 weight % glycine solution (10 mg) were added to the AV-conjugated IO/HSA NPs bicarbonate aqueous dispersion to block residual sites. The AV-IO/HSA nanoparticles were then washed and eluted through a magnetic column with PBS and stored under sterile conditions.\nAvastin was physically conjugated to the IO/HSA nanoparticles by adding 7.5 mg of avastin to 4 mL of the IO/HSA NPs PBS dispersion (10 mg/mL). […]\nThe attached and remaining concentrations of physically and covalently conjugated avastin was determined through ELISA assay using a standard protocol. The calculated covalent bound avastin concentration (via ELISA method) was 0.10 mg/1 mg of the nanoparticles. The calculated physical conjugated avastin concentration (via ELISA method) was 0.13 mg/1 mg of the nanoparticles (30% more of the covalent binding process)."}, "[2]": {"test_system": "CT26 tumors", "assay": "Anti-tumor activity of systemically administered 5FU in tumor-xenografted mice", "assay_type": "in vivo", "details": "three consecutive intraperitoneal injections, vs normal saline", "description": "Male BALB/c mice (6 weeks of age, Envigo, Israel) were used for all in-vivo experiments. All experiments were performed with approval and in accordance with the guidelines of the Institutional Animal Care and Use Committee at The Hebrew University of Jerusalem. 1.5×10^6 CT26 cells were injected subcutaneously into the right anterior limb of each mouse. Ten days later (day 0) colorectal tumor appeared at the injection site. The mice were randomly allocated to control and experimental groups.\nFollowing tumor creation systemic administration via intraperitoneal (IP) injection of 5FU (experiment) or normal saline (control) was performed. 5FU injections were carried out on days 3, 4, 5. Tumor progression was evaluated by measuring the tumor volume using a Vernier caliper at days 0,1,3,4,6,8 and 10.\nStatistical analyses of tumor volumes were performed using RM two-way Analysis of Variation (ANOVA) with a confidence interval of 95% using post hoc Dunnet' s analysis of multiple comparisons for the tumor treated with 5FU bounded to 6×IONPs and Sidak's analysis for the tumor treated with free 5FU. Statistical analysis of iron staining quantification in the spleen was performed using the nonparametric Kruskal-Wallis test with a confidence interval of 95% using post hoc Dunn's analysis of multiple comparisons."}, "[3]": {"test_system": "CT26 tumor (Bev resistant)", "assay": "Anti-tumor activity of Bev SPIONs in Bev resistant tumors", "assay_type": "in vivo, mice", "details": "10 mg/kg (FIG. 13), without magnetic field"}}, "note": "“Also recorded” adds a separate entry of the source.", "data": [{"molecule": "AV-IO/HSA: Avastin covalently bound via NHS-PEG-MA to IO/HSA nanoparticles", "values": [{"measurement": "calculated bound avastin concentration", "setting": "[1]", "result": "0.10 mg/1 mg of the nanoparticles"}]}, {"molecule": "O=c1[nH]cc(F)c(=O)[nH]1", "note": "[5FU, 5-Fluorouracil]", "values": [{"measurement": "tumor volume / tumor growth", "setting": "[2]", "result": "No significant changes in tumor volumes; also recorded: did not inhibit CT26 tumor growth at all; also recorded: no significant difference"}]}, {"molecule": "bevacizumab", "values": [{"measurement": "tumor growth", "setting": "[3]; local administration", "result": "did not yield inhibition of tumor growth; also recorded: had no effect on tumor growth"}, {"measurement": "tumor growth", "setting": "[3]; systemic administration", "result": "did not yield inhibition of tumor growth; also recorded: had no effect on tumor growth"}]}]}
